This passage reports IC50 results from patent publication US11407757B2, “Heterocycle compounds as Tyro3, Axl and MerTK (TAM) family of receptor tyrosine kinase inhibitors” (Development Center for Biotechnology, priority 2017, dated 2022).

In the test the target is Axl kinase (Homo sapiens (Human), UniProt P30530). The test can be described thus: Axl kinase assay (AlphaScreen). In kind it is biochemical. The conditions noted are these: activity level class. Background: Alpha assays give light when donor and acceptor beads are brought close together.
Chain of Axl kinase (P30530 26-894): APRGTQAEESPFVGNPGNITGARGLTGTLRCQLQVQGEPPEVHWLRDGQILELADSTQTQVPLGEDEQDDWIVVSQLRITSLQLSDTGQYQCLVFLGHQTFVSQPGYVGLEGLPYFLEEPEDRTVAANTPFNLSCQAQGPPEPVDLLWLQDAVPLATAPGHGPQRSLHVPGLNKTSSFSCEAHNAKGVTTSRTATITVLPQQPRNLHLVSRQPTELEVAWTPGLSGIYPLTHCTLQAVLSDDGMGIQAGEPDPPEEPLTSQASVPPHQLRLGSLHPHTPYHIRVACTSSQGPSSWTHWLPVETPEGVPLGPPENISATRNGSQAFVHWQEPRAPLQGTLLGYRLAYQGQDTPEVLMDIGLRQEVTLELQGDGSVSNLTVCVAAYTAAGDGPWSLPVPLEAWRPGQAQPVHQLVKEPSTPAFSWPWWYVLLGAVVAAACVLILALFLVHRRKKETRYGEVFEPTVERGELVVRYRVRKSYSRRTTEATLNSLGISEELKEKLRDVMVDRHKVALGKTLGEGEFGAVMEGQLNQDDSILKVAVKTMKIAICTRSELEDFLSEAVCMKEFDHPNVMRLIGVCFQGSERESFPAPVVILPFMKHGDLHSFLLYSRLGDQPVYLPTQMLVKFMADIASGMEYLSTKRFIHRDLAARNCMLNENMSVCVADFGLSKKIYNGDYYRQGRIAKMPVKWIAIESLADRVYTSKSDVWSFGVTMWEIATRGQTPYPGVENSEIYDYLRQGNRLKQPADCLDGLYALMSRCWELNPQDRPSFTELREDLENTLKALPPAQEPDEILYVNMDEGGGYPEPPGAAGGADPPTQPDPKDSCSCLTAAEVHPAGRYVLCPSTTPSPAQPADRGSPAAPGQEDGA

In turn, `COCCOc1nc(Nc2ccc(CN3CCN(C)CC3)cc2)nc2[nH]cc(-c3ccc(NS(=O)(=O)c4cc(F)ccc4F)cc3)c12` [Compound 1, 2,5-difluoro-N-(4-(4-(2-methoxyethoxy)-2-((4-((4-methylpiperazin-1-yl)methyl)phenyl)amino)-7H-pyrrolo[2,3-d]pyrimidin-5-yl)phenyl)benzene-sulfonamide] gave a half-inhibitory concentration (IC50) of less than 30 nM. `COCCOc1nc(Nc2ccc(CN3CCC(C)CC3)cc2)nc2[nH]cc(-c3ccc(NS(=O)(=O)c4cc(F)ccc4F)cc3)c12` [Compound 3, 2,5-difluoro-N-(4-(4-(2-methoxyethoxy)-2-((4-((4-methylpiperidin-1-yl)methyl)phenyl)amino)-7H-pyrrolo[2,3-d]pyrimidin-5-yl)phenyl)benzene-sulfonamide] displayed an IC50 of less than 30 nM. The same measure for `COc1nc(Nc2ccc(CN3CCC(C)CC3)cc2)nc2[nH]cc(-c3ccc(NS(C)(=O)=O)cc3)c12` [Compound 4, N-(4-(4-methoxy-2-((4-((4-methylpiperidin-1-yl)methyl)phenyl)amino)-7H-pyrrolo[2,3-d]pyrimidin-5-yl)phenyl)methane-sulfonamide]: less than 30 nM; for `COc1nc(Nc2ccc(CN3CCC(C)CC3)cc2)nc2[nH]cc(-c3ccc(S(=O)(=O)N(C)C)cc3)c12` [Compound 5, 4-(4-methoxy-2-((4-((4-methylpiperidin-1-yl)methyl)phenyl)amino)-7H-pyrrolo[2,3-d]pyrimidin-5-yl)-N,N-dimethylbenzene-sulfonamide]: less than 30 nM. The value for `COCCOc1nc(Nc2ccc(CN3CCN(C)CC3)cc2)nc2[nH]cc(-c3ccc(OCc4cc(C)ccn4)cc3F)c12` [Compound 9, 5-(2-fluoro-4-((4-methylpyridin-2-yl)methoxy)phenyl)-4-(2-methoxyethoxy)-N-(4-((4-methylpiperazin-1-yl)methyl)phenyl)-7H-pyrrolo[2,3-d]pyrimidin-2-amine] was less than 30 nM.

`COCCOc1nc(Nc2ccc(CN3CCN(C)CC3)cc2)nc2[nH]cc(-c3ccc(OCc4ncccc4C)cc3F)c12` [Compound 11, 5-(2-fluoro-4-((3-methylpyridin-2-yl)methoxy)phenyl)-4-(2-methoxyethoxy)-N-(4-((4-methylpiperazin-1-yl)methyl)phenyl)-7H-pyrrolo[2,3-d]pyrimidin-2-amine] showed an IC50 of less than 30 nM. The same measure for `COc1nc(Nc2ccc(CN3CCN(C)CC3)cc2)nc2[nH]cc(-c3ccc(O)cc3)c12` [Compound 17, 4-(4-methoxy-2-((4-((4-methylpiperazin-1-yl)methyl)phenyl)amino)-7H-pyrrolo [2,3-d]pyrimidin-5-yl)phenol]: less than 30 nM; for `CCN1CCN(Cc2ccc(Nc3nc(OCCOC)c4c(-c5ccc(OCc6ccccn6)cc5F)c[nH]c4n3)cc2)CC1` [Compound 19, N-(4-((4-ethylpiperazin-1-yl)methyl)phenyl)-5-(2-fluoro-4-(pyridin-2-ylmethoxy)phenyl)-4-(2-methoxyethoxy)-7H-pyrrolo[2,3-d]pyrimidin-2-amine]: less than 30 nM; for `COc1nc(Nc2ccc(CN3CCC(C)CC3)cc2)nc2[nH]cc(-c3ccc(O)cc3)c12` [Compound 28, 4-(4-methoxy-2-((4-((4-methylpiperidin-1-yl)methyl)phenyl)amino)-7H-pyrrolo[2,3-d]pyrimidin-5-yl)phenol]: less than 30 nM. `COCCOc1nc(Nc2ccc(CN3CCC(C)CC3)cc2)nc2[nH]cc(-c3ccc(OCc4ncccn4)cc3F)c12` [Compound 34, 5-(2-fluoro-4-(pyrimidin-2-ylmethoxy)phenyl)-4-(2-methoxyethoxy)-N-(4-((4-methylpiperidin-1-yl)methyl)phenyl)-7H-pyrrolo[2,3-d]pyrimidin-2-amine]: the IC50 was less than 30 nM.

Consider `COc1nc(Nc2ccc(CN3CCN(C)CC3)cc2)nc2[nH]cc(-c3ccc(F)cc3)c12` [Compound 38, 5-(4-fluorophenyl)-4-methoxy-N-(4-((4-methylpiperazin-1-yl)methyl)phenyl)-7H-pyrrolo[2,3-d]pyrimidin-2-amine], for which the IC50 is less than 30 nM. The value for `CCN1CCN(Cc2ccc(Nc3nc(OCCOC)c4c(-c5ccc(OCc6ncccn6)cc5F)c[nH]c4n3)cc2)CC1` [Compound 39, N-(4-((4-ethylpiperazin-1-yl)methyl)phenyl)-5-(2-fluoro-4-(pyrimidin-2-ylmethoxy)phenyl)-4-(2-methoxyethoxy)-7H-pyrrolo[2,3-d]pyrimidin-2-amine] was less than 30 nM; that for `CCN1CCN(Cc2ccc(Nc3nc(OC)c4c(-c5ccc(F)cc5F)c[nH]c4n3)cc2)CC1` [Compound 45, 5-(2,4-difluorophenyl)-N-(4-((4-ethylpiperazin-1-yl)methyl)phenyl)-4-methoxy-7H-pyrrolo [2,3-d]pyrimidin-2-amine] was less than 30 nM. The value for `CCN1CCN(Cc2ccc(Nc3nc(OC)c4c(-c5ccc(O)cc5)c[nH]c4n3)cc2)CC1` [Compound 48, 4-(2-((4-((4-ethylpiperazin-1-yl)methyl)phenyl)amino)-4-methoxy-7H-pyrrolo[2,3-d]pyrimidin-5-yl)phenol] was less than 30 nM; that for `COCCOc1nc(Nc2ccc(CN3CCN(C)CC3)cc2)nc2[nH]cc(-c3ccc(F)c(Cl)c3)c12` [Compound 50, 5-(3-chloro-4-fluorophenyl)-4-(2-methoxyethoxy)-N-(4-((4-methylpiperazin-1-yl)methyl)phenyl)-7H-pyrrolo[2,3-d]pyrimidin-2-amine] was less than 30 nM. The same measure for `CN1CCN(Cc2ccc(Nc3nc(OCC4CCCO4)c4c(-c5ccc(F)cc5F)c[nH]c4n3)cc2)CC1` (centres unmarked) [Compound 52, 5-(2,4-difluorophenyl)-N-(4-((4-methylpiperazin-1-yl)methyl)phenyl)-4-((tetrahydrofuran-2-yl)methoxy)-7H-pyrrolo[2,3-d] pyrimidin-2-amine]: less than 30 nM; for `COCCOc1nc(Nc2ccc(CN3CCN(C)CC3)cc2)nc2[nH]cc(-c3ccc(F)cc3F)c12` [Compound 53, 5-(2,4-difluorophenyl)-4-(2-methoxyethoxy)-N-(4-((4-methylpiperazin-1-yl)methyl)phenyl)-7H-pyrrolo[2,3-d] pyrimidin-2-amine]: less than 30 nM; for `CCNc1nc(Nc2ccc(CN3CCN(C)CC3)cc2)nc2[nH]cc(-c3ccc(F)cc3F)c12` [Compound 54, 5-(2,4-difluorophenyl)-N4-ethyl-N2-(4-((4-methylpiperazin-1-yl)methyl)phenyl)-7H-pyrrolo[2,3-d] pyrimidine-2,4-diamine]: less than 30 nM. Turning to `CN1CCN(Cc2ccc(Nc3nc(OC4CCCC4)c4c(-c5ccc(F)cc5F)c[nH]c4n3)cc2)CC1` [Compound 55, 4-(cyclopentyloxy)-5-(2,4-difluorophenyl)-N-(4-((4-methylpiperazin-1-yl)methyl)phenyl)-7H-pyrrolo[2,3-d]pyrimidin-2-amine], the IC50 was less than 30 nM. The value for `CCOc1nc(Nc2ccc(CN3CCN(C)CC3)cc2)nc2[nH]cc(-c3ccc(F)cc3F)c12` [Compound 59, 5-(2,4-difluorophenyl)-4-ethoxy-N-(4-((4-methylpiperazin-1-yl)methyl)phenyl)-7H-pyrrolo[2,3-d] pyrimidin-2-amine] was less than 30 nM. The value for `COCC(C)Oc1nc(Nc2ccc(CN3CCN(C)CC3)cc2)nc2[nH]cc(-c3ccc(F)cc3F)c12` (centres unmarked) [Compound 63, 5-(2,4-difluorophenyl)-4-((1-methoxypropan-2-yl)oxy)-N-(4-((4-methylpiperazin-1-yl)methyl)phenyl)-7H-pyrrolo[2,3-d]pyrimidin-2-amine] was less than 30 nM; that for `COCCOc1nc(Nc2ccc(CN3CCN(C)CC3)cc2)nc2[nH]cc(-c3ccc4nc(C)oc4c3)c12` [Compound 64, 4-(2-methoxyethoxy)-5-(2-methylbenzo[d]oxazol-6-yl)-N-(4-((4-methylpiperazin-1-yl)methyl)phenyl)-7H-pyrrolo[2,3-d] pyrimidin-2-amine] was less than 30 nM; that for `COCCOc1nc(Nc2ccc(CN3CCN(C)CC3)cc2)nc2[nH]cc(-c3ccc(OCn4ccccc4=O)cc3F)c12` [Compound 68, 1-((3-fluoro-4-(4-(2-methoxyethoxy)-2-((4-((4-methylpiperazin-1-yl)methyl)phenyl)amino)-7H-pyrrolo[2,3-d]pyrimidin-5-yl)phenoxy)methyl) pyridin-2(1H)-one] was less than 30 nM. The value for `CC(C)Oc1nc(Nc2ccc(CN3CCN(C)CC3)cc2)nc2[nH]cc(-c3ccc(F)cc3F)c12` [Compound 69, 5-(2,4-difluorophenyl)-4-isopropoxy-N-(4-((4-methylpiperazin-1-yl)methyl)phenyl)-7H-pyrrolo[2,3-d]pyrimidin-2-amine] was less than 30 nM.

`CN1CCN(Cc2ccc(Nc3nc(NC4CCOCC4)c4c(-c5ccc(F)cc5F)c[nH]c4n3)cc2)CC1` [Compound 75, 5-(2,4-difluorophenyl)-N2-(4-((4-methylpiperazin-1-yl)methyl)phenyl)-N4-(tetrahydro-2H-pyran-4-yl)-7H-pyrrolo[2,3-d]pyrimidine-2,4-diamine] registered an IC50 of less than 30 nM. The same measure for `CN1CCN(Cc2ccc(Nc3nc(OCC4CCCO4)c4c(-c5ccc(F)c(Cl)c5)c[nH]c4n3)cc2)CC1` (centres unmarked) [Compound 77, 5-(3-chloro-4-fluorophenyl)-N-(4-((4-methylpiperazin-1-yl)methyl)phenyl)-4-((tetrahydrofuran-2-yl)methoxy)-7H-pyrrolo[2,3-d]pyrimidin-2-amine]: less than 30 nM; for `COCCOc1nc(Nc2ccc(CN3CCN(C)CC3)cc2)nc2[nH]cc(-c3ccc(S(=O)(=O)N(C)C)cc3)c12` [Compound 79, 4-(4-(2-methoxyethoxy)-2-((4-((4-methylpiperazin-1-yl)methyl)phenyl)amino)-7H-pyrrolo[2,3-d]pyrimidin-5-yl)-N,N-dimethylbenzene-sulfonamide]: less than 30 nM. `COCCOc1nc(Nc2ccc(CN(C)C)cc2)nc2[nH]cc(-c3ccc(F)cc3F)c12` [Compound 80, 5-(2,4-difluorophenyl)-N-(4-((dimethylamino)methyl)phenyl)-4-(2-methoxyethoxy)-7H-pyrrolo[2,3-d]pyrimidin-2-amine]: the IC50 is less than 30 nM. On to `COCCOc1nc(Nc2ccc(CN3CCN(C)CC3)cc2)nc2[nH]cc(-c3ccc(F)cc3)c12` [Compound 85, 5-(4-fluorophenyl)-4-(2-methoxyethoxy)-N-(4-((4-methylpiperazin-1-yl)methyl)phenyl)-7H-pyrrolo[2,3-d]pyrimidin-2-amine], for which the IC50 was less than 30 nM.

For orientation: IC50 means the midpoint of a concentration-inhibition curve.
